Data on five compounds can be found in US8796246B2, “9, 10-secopregnane derivative and pharmaceutical” (Nippon Shinyaku Co., Ltd., priority 2006, dated 2014).

The nature of data set [1]: Action to increase the urinary excretion of calcium (1), percutaneous administration. The class given is in vivo, SD male rats. The note with it: percutaneous 10 μg/200 μL/kg/day once a day for 4 days; for Calcium in Urine within 24 hours: accumulated excretion 0 to 24 hours; for Calcium in Urine within 48 hours: accumulated excretion 0 to 48 hours; for Calcium in Urine within 72 hours: accumulated excretion 0 to 72 hours; for Calcium in Urine within 96 hours: accumulated excretion 0 to 96 hours. On the procedure: The compound of the invention mentioned in Example 1, 36, 43, 47, 48, 55 or 70 or maxacalcitol in ethanol containing 0.5% DMSO was repeatedly subjected to a percutaneous administration (10 μg/200 μL/kg/day) once a day for 4 days onto the back of SD male rats (7 weeks of age). Ethanol containing 0.5% DMSO was administered to a control group. The calcium concentration in urine collected every 24 hours was measured and multiplied by the amount of urine to calculate the urinary excretion of calcium. The calcium excretion in urine shown in Table 3 indicates the accumulated calcium excretion from 0 to 24 hours, from 0 to 48 hours, from 0 to 72 hours, and from 0 to 96 hours.

Data set [2] can be described thus: Action to increase calcium concentration in serum, percutaneous administration. The class given is in vivo, SD male rats. The following applies: for Serum Calcium Concentration: percutaneous 33 μg/200 μL/kg/day once a day for 7 days, blood 24 hours after final administration. On the procedure:
The compound of the invention mentioned in Example 1 or maxacalcitol in ethanol containing 0.3% DMSO was repeatedly subjected to percutaneous administration (33 μg/200 μL/kg/day) once a day for 7 days onto the back of SD male rats (7 weeks of age). Ethanol containing 0.3% DMSO was administered to a control group. At 24 hours after the final administration, blood was collected and the calcium concentration in serum was measured.

The test system of data set [3] is human acute myelogenous leukemia cell line HL-60. The data set is described as follows: Ability to induce differentiation of HL-60 cells (oxygen radical production after phorbol ester, WST-1). The class given is cell-based. The note with it: 72 hours incubation, then WST-1 and phorbol 12,13-didecanoate for 4 hours, absorbance at 450 nm. On the technique in general: Tetrazolium dyes change colour on reduction, which living cells bring about.

Data set [4] is described as follows: Metabolic rate in human liver microsome. In kind it is in vitro ADME. The following applies: pooled human liver microsome 1 mg/mL protein, NADPH-regenerating system, 37° C., 2-60 minutes, HPLC. Background: Liver microsomes are vesicles of endoplasmic reticulum, rich in cytochrome P450 enzymes.
Data set [5] is described as follows: Action to increase the urinary excretion of calcium (2), intravenous administration. In kind it is in vivo, SD male rats. The following applies: intravenous 22.4 nmol/kg; for Calcium in Urine: urine collected within 24 hours after administration; for Ratio of Calcium in Urine (to control): urine within 24 hours, test compound/control group. On the procedure:
The compound of the invention mentioned in Example 42, 61 or 66, or maxacalcitol in saline containing 0.1% Triton X 100/5.6% DMSO (22.4 nmol/kg) was subjected to an intravenous administration to SD male rats (7 weeks of age) Saline containing 0.1% Triton X 100/5.6% DMSO was administered to a control group. The calcium concentration in urine collected within 24 hours after the administration was measured and the urinary excretion of calcium ([calcium concentration in urine]×[amount of urine]) and the ratio of urinary excretion of calcium based on the control group ([calcium amount in urine in administration of the test compound]/[calcium amount in urine in the control group]) were calculated.

By EC50 is commonly meant the concentration that produces a half-maximal response. Higher therefore signals lower potency in that assay. As to `C=C1/C(=C\C=C2/CCC[C@]3(C)[C@@H]([C@H](C)OC(=O)CCC(C)(C)O)CC[C@@H]23)C[C@@H](O)C[C@@H]1O` [Compound of Example 1, (1S,3R,20S)-20-(4-hydroxy-4-methylpentanoyloxy)-9,10-secopregna-5Z,7E,10(19)-triene-1,3-diol], in data set [1], the “Calcium in Urine within 24 hours” value is on record as 0.8 mg, the “Calcium in Urine within 48 hours” value worked out at 1.4 mg, the “Calcium in Urine within 72 hours” value was 2.3 mg and the “Calcium in Urine within 96 hours” value came out at 3.8 mg. Besides, the “Serum Calcium Concentration” value in data set [2] is listed as 11.8 mg/dL. This compound also gave a concentration for a half-maximal effect (EC50) in data set [3] of 1.5 nM. In addition, the “Metabolic Rate” value in data set [4] came to 78 pmol/min/mg.
Take `CCC(O)(/C=C/C(=O)O[C@@H](C)[C@H]1CC[C@H]2/C(=C/C=C3C[C@@H](O)C[C@H](O)C3)CCC[C@]12C)CC` [Compound of Example 42, (1R,3R,20S)-19-nor-20-[(2E)-4-ethyl-4-hydroxyhex-2-enoyloxy]-9,10-secopregna-5Z,7E-diene-1,3-diol]: in data set [5], the “Calcium in Urine” value was found to be 0.8 mg and the “Ratio of Calcium in Urine (to control)” value amounted to 160%. The compound also registered an EC50 in data set [3] of 1.3 nM. Also, the “Metabolic Rate” value in data set [4] came to 34 pmol/min/mg.
In the same order, the values of `CC1[C@H](O)CC(=C/C=C2\CCC[C@]3(C)[C@@H]([C@H](C)OC(=O)CCC(C)(O)C(F)(F)F)CC[C@@H]23)C[C@H]1O` (stereo partly drawn) [Compound of Example 61, (1R,2β,3R,20S)-2-methyl-19-nor-20-(5,5,5-trifluoro-4-hydroxy-4-methylpentanoyloxy)-9,10-secopregna-5Z,7E-diene-1,3-diol] are 0.6 mg, 120%, 1.2 nM and 188 pmol/min/mg.
Take `CCC(O)(CC)CCC(=O)O[C@@H](C)[C@H]1CC[C@H]2/C(=C/C=C3C[C@@H](O)C(C)[C@H](O)C3)CCC[C@]12C` (stereo partly drawn) [Compound of Example 66, (1R,2β,3R,20S) -2-methyl-19-nor-20-[4-ethyl-4-hydroxyhexanoyloxy]-9,10-secopregna-5Z,7E-diene-1,3-diol]: in data set [5], the “Calcium in Urine” value was determined as 0.5 mg and the “Ratio of Calcium in Urine (to control)” value is 100%. In addition, in data set [4], the “Metabolic Rate” value amounted to 116 pmol/min/mg.
On to `C=C1/C(=C\C=C2/CCC[C@]3(C)[C@@H]([C@H](C)OCCC(C)(C)O)CC[C@@H]23)C[C@@H](O)C[C@@H]1O` [Maxacalcitol, (1S,3R,20S)-20-(3-hydroxy-3-methylbutyloxy)-9,10-secopregna-5Z,7E,10(19)-trien-1,3-diol, reference compound], for which, in data set [1], the “Calcium in Urine within 24 hours” value is given as 2.6 mg, the “Calcium in Urine within 48 hours” value was found to be 4.5 mg, the “Calcium in Urine within 72 hours” value is recorded as 8.5 mg and the “Calcium in Urine within 96 hours” value was 13.9 mg. Also, the “effect on the calcium concentration in serum (in words)” value in data set [2] (percutaneous 33 μg/200 μL/kg/day for 7 days) is on record as “increased the calcium concentration in serum”. The “Serum Calcium Concentration” value in data set [2] stood at 15.0 mg/dL. In data set [5], the “Calcium in Urine” value is recorded as 2.3 mg and the “Ratio of Calcium in Urine (to control)” value is given as 460%. The concentration for a half-maximal effect (EC50) in data set [3] (Homo sapiens) came out at 5.4 nM. Also, the “Metabolic Rate” value in data set [4] is listed as 10 pmol/min/mg.
